Experiment [1] concerns the target caspase-like site of 26S proteasomes (Oryctolagus cuniculus, UniProt A0A5F9DQW2). Kind of experiment: Inhibition of purified 26S proteasomes, substrate Ac-nLPnLD-amc. The experiment is classed as biochemical, rabbit. The conditions noted are these: >>30 no inhibition at 30 μM, >30 inhibition between 10 and 50% at 30 μM, read-out: IC50 for sites in 26S proteasomes: Casp-L. On the procedure:
(§1) 26S proteasomes were purified from rabbit muscle using known methods (Screen, et al. (2010) supra). […] NOVEX Bis-Tris gels (12%, Invitrogen) with MOPS running buffer were used for electrophoretic separation of catalytic subunits modified by active-site probes. Inhibition of active sites inside cells was assayed using luminescent PROTEASOMEGLO assay (Promega; Moravec, et al. (2009) Anal. Biochem. 387:294-302) according to known methods (Britton, et al. (2009) supra).

The target of experiment [2] is T1, trypsin-like site of 26S proteasomes (Oryctolagus cuniculus, UniProt G1SWK8).
T1 construct: IC50 for sites in 26S proteasomes: Tr-L; other: purified 26S proteasomes; other: 26S proteasomes from rabbit muscles
T1 sequence (G1SWK8 1-271): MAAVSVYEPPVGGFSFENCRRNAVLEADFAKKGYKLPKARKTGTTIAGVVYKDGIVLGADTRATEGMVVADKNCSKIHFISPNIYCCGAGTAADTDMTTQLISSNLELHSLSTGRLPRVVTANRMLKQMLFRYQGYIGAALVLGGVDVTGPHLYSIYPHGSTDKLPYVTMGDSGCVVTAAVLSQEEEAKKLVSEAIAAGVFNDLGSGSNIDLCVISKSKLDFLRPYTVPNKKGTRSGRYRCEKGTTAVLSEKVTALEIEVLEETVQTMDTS
Kind of experiment: Inhibition of purified 26S proteasomes, substrate Ac-RLR-amc. The conditions noted are these: purified 26S proteasomes; >>30 no inhibition at 30 μM, >30 inhibition between 10 and 50% at 30 μM; read-out: IC50 for sites in 26S proteasomes: Tr-L. The experiment is classed as biochemical, rabbit.

For experiment [3], the target named is T2, chymotrypsin-like site of 26S proteasomes (Oryctolagus cuniculus, UniProt G1T4Q9).
T2 sequence (G1T4Q9 1-263): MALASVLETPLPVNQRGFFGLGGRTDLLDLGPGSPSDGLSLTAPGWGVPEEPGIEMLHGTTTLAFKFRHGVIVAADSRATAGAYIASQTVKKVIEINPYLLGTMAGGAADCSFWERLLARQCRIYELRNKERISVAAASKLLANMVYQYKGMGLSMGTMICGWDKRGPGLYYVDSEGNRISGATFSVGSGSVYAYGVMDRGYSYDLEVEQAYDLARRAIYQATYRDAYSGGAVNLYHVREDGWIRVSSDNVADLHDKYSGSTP
Kind of experiment: Inhibition of purified 26S proteasomes, substrate Suc-LLVY-amc. Type of experiment: biochemical, rabbit. The conditions noted are these: >>30 no inhibition at 30 μM, >30 inhibition between 10 and 50% at 30 μM, read-out: IC50 for sites in 26S proteasomes: Chym-L. On the procedure:
as §1

Experiment [4] relates to trypsin-like site of 26S proteasomes. Kind of experiment: Inhibition of purified 26S proteasomes, substrate Ac-RLR-amc. Type of experiment: biochemical, rabbit. The note with it: for IC50 (Chym-L)/IC50 (Tr-L): rabbit 26S proteasomes.
The test system of a further experiment is Cathepsin B, H, L, S. Kind of experiment: Cathepsin activity with pan-cathepsin substrate Z-FR-amc. The experiment is classed as cell-based. The conditions noted are these: NCI-H929 cells, 6 hour treatment. How it is done:
Cathepsin B, H, L, S activity was measured with pan-cathepsin substrate Z-FR-amc (Kirschke & Wiederanders (1994) Methods Enzymol. 244:500-11) in extracts of cytosol-less cells at pH 6.0 (Screen, et al. (2010) supra). Cathepsin D activity was measured in cytosol-less extracts using SENSOLYTE 520 Cathepsin D Fluorometric Assay Kit (AnaSpec). Combined cathepsin D and E activity was measured using the same kit, in which cathepsin D substrate provided with the kit was replaced with 7-Methoxycoumarin-[…](Dnp)-X′-NH2 (SEQ ID NO:10; where “X′” stand for D-Arg) internally quenched fluorogenic substrate of cathepsin D and E. In this case, pH 3.0 assay buffer used for cell extraction. All activity observed using both procedures was inhibited by more than 98% by specific inhibitor of aspartic proteases pepstatin A.

The test system of experiment [5] is trypsin-like sites (β2) of proteasome in MM cells. Kind of experiment: PROTEASOMEGLO assay of proteasome inhibition in MM cells. The experiment is classed as cell-based. How it is done:
Proteasome inhibition in MM cells was measured with luminogenic substrates using PROTEASOMEGLO assay (Promega). […] An aliquot of culture was pelleted and medium was removed and replaced with PBS. The resulting cell suspension was mixed with luminogenic substrates in the manufacturer-provided lysis/assay buffer. After 3 minutes mixing on an orbital shaker, the plate was incubated in the dark for additional 17 minutes, followed by the measurements of the luminescence, performed in triplicate for each substrate/data point. Data were analyzed as for purified proteasomes. […] Cells (1×10^6 per well of a 6-well plate) were incubated with the inhibitors for 4 hours at 37° C. and this was followed by a 2 hour incubation with 5 μM BODIPY-TMR-epoxomicin. Subsequently, the medium was removed and the cells were washed with PBS and harvested. […] The supernatant was collected and the protein concentration was determined by the Bradford assay, and used to normalize gel loading. The samples were analysed by SDS-PAGE and fluorescent densitometry as described for competition experiment in cell lysates. IC50 values were calculated from three independent experiments using […] PRISM software.

Another experiment deals with T3, β5 proteasome subunit (Homo sapiens, UniProt P20618+P28074).
T3 construct: Whole cell lysates of HEK-293T or EL-4 cells were made by sonication; endogenous in cells; host or cells: HEK-293T
Kind of experiment: Competition assay in HEK-293T cell lysate with MV151. The experiment is classed as biochemical. The conditions noted are these: HEK293 extracts. On the procedure: Whole cell lysates of HEK-293T or EL-4 cells were made by sonication in 3 volumes of lysis buffer containing 50 mM Tris pH 7.5, 1 mM DTT, 5 mM MgCl2, 250 mM sucrose, 2 mM ATP, 0.025% digitonin. Protein concentration was determined by the Bradford assay. Cell lysates (13.5 μg total protein for HEK lysates and 9 μg total protein for EL-4 lysates) were exposed to the inhibitors for 1 hour at 37° C. prior to incubation with MV151 (0.5 μM) or BODIPY-TMR-epoxomicin (0.5 μM) for an additional 1 hour at 37° C. Reaction mixtures were boiled with Laemmli's buffer containing (3-mercaptoethanol for 5 minutes before being resolved by 12.5% SDS-PAGE. In-gel detection of residual proteasome activity was performed in the wet gel slabs directly on the TYPHOON Variable Mode Imager (Amersham Biosciences) using the Cy3/Tamra settings (λex 532 nm, λem 560 nm) to detect MV151, BODIPY-TMR-epoxomicin and Cy2/Fam settings (λex 488 nm, λem 520 nm) to detect compounds 39 and 59.
The inhibition potential of the inhibitors for each of the catalytically active subunits was assessed in competition assays employing extracts of human embryonic kidney cells (HEK-293T) and mouse lymphoma cells (EL-4) in combination with the fluorescent broad spectrum proteasome probe MV151 (Verdoes, et al. (2006) Chem. Biol. 13:1217-1226). Competitive inhibition of a proteasome active site is reflected by the disappearance of the corresponding band on a gel.

Another experiment has as its system RPMI-8226 cells. Kind of experiment: ALAMAR BLUE cell viability assay. The conditions noted are these: E-64d 10 μM. Type of experiment: cell-based. On the procedure: RPMI-8226 and NCI-H929 cells were cultured in RPMI-1640 supplemented with 10% fetal bovine serum, penicillin, streptomycin, and plasmocin in 5% CO2 humidified incubator. HEK-293T cells were cultured in DMEM containing 10% fetal calf serum, 10 units/mL penicillin, and 10 μg/mL streptomycin in a 7% CO2 humidified incubator. Viability of multiple myeloma cells was measured with ALAMAR BLUE mitochondrial dye conversion assay. Viability of peripheral blood mononuclear cells (PBMNCs) was measured using CELL TITER-GLO luminescent cell viability assay (Promega), which is based on quantification of ATP present in the cells. Caspase-3/7 activity was measured using APO-ONE 3/7 homogeneous assay (Promega).
On the technique in general: Resazurin is reduced to fluorescent resorufin, in cell work by metabolically active cells.

Structures can show the parent of a compound that is named as a salt.

In general, IC50 refers to the midpoint of a concentration-inhibition curve.

Chain of caspase-like site of 26S proteasomes (A0A5F9DQW2 1-212): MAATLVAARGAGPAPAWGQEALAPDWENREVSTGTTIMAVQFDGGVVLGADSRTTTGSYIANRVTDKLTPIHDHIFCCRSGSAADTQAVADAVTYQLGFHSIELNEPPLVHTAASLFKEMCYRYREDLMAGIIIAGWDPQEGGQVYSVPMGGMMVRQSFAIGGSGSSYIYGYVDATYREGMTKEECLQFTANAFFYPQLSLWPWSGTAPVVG

On to `CC(C)C[C@H](NC(=O)[C@H](Cc1ccccc1)N=[N+]=[N-])C(=O)N[C@@H](CC(C)C)C(=O)N[C@@H](Cc1ccc(CN)cc1)C(=O)[C@@]1(C)CO1` [Compound 4b, N3Phe-Leu-Leu-Phe(4-CH2NH2)EK], for which the IC50 in experiment [1] came out at 11 µM; in experiment [2] it was 0.25 µM.
As to `CC(C)C[C@H](NC(=O)[C@H](Cc1ccccc1)N=[N+]=[N-])C(=O)N[C@@H](CC(C)C)C(=O)N[C@H](/C=C/S(C)(=O)=O)Cc1ccc(N)cc1` [Compound 45a, N3-Phe-Leu-Leu-Phe(4-NH2)-VS], the IC50 was 0.04 µM in experiment [3], 23 µM in experiment [1] and 0.11 µM in experiment [2].
As to `CC(C)C[C@H](NC(=O)[C@H](Cc1ccccc1)N=[N+]=[N-])C(=O)N[C@@H](CC(C)C)C(=O)N[C@@H](Cc1ccc(N)cc1)C(=O)[C@@]1(C)CO1` [Compound 45b, N3-Phe-Leu-Leu-Phe(4-NH2)-EK], the IC50 in experiment [3] is 0.01 µM; in experiment [1], above 30 µM.
For `CC(C)C[C@H](NC(=O)[C@H](Cc1ccccc1)N=[N+]=[N-])C(=O)N[C@@H](CC(C)C)C(=O)N[C@H](/C=C/S(C)(=O)=O)Cc1ccncc1` [Compound 46, N3-Phe-Leu-Leu-Ala(4-pyridine)-VS] the same measures were below 0.1 µM and above 30 µM.
For `CC(C)C[C@H](NC(=O)[C@H](Cc1ccccc1)N=[N+]=[N-])C(=O)N[C@@H](CC(C)C)C(=O)N[C@H](/C=C/S(C)(=O)=O)CCCCN` [Compound 47, N3-Phe-Leu-Leu-Lys-VS], the IC50 in experiment [1] is above 30 µM.
With `Cc1c(O)cccc1C(=O)N[C@H](C(=O)N[C@@H](CO)C(=O)N[C@H](/C=C/S(C)(=O)=O)Cc1ccc(N)cc1)C(C)C` [Compound 49, HMB-Val-Ser-Phe(4-NH2)-VS], the IC50 was 0.04 µM in experiment [3], 23 µM in experiment [1] and 0.11 µM in experiment [2]. For the same molecule, the “IC50 (Chym-L)/IC50 (Tr-L)” value in experiment [4] is on record as 0.36.
In the case of `CC(C)C[C@H](NC(=O)[C@H](Cc1ccncc1)NC(=O)[C@H](Cc1ccccc1)N=[N+]=[N-])C(=O)N[C@H](/C=C/S(C)(=O)=O)Cc1ccc(CN)cc1` [Compound 50, N3-Phe-Ala (4-pyridine)-Leu-Phe (4-CH2NH2-TFA)-VS], the “inhibition of cathepsins (Z-FR-amc)” value with Cathepsin B, H, L, S is reported as “partly reduced cathepsin activity”.
Take `CC(C)C[C@H](NC(=O)[C@H](Cc1ccc(N)cc1)NC(=O)[C@H](Cc1ccccc1)N=[N+]=[N-])C(=O)N[C@H](/C=C/S(C)(=O)=O)Cc1ccc(CN)cc1` [Compound 51, N3-Phe-Phe (4-NH2. TFA)-Leu-Phe (4-CH2NH2.TFA)-VS]: in the experiment on Cathepsin B, H, L, S, the “inhibition of cathepsins (Z-FR-amc)” value is “behaved similarly to 4a”. Besides, the IC50 was determined as 3.4 µM in experiment [3] and 0.03 µM in experiment [2]. Also, the “difference in IC50 for trypsin-like activity between NCI-H929 and RPMI-8226” value in experiment [5] is on record as “five-fold”.
In the case of `CC(C)C[C@H](NC(=O)[C@H](Cc1ccc(CN)cc1)NC(=O)[C@H](Cc1ccccc1)N=[N+]=[N-])C(=O)N[C@H](/C=C/S(C)(=O)=O)Cc1ccc(N)cc1` [Compound 53, N3-Phe-Phe (4-CH2NH2)-Leu-Phe (4-NH2)—VS], the IC50 in experiment [1] was above 30 µM. Besides, in experiment [4], the “IC50 (Chym-L)/IC50 (Tr-L)” value is reported as 59.
As for `CC(C)C[C@H](NC(=O)[C@H](Cc1ccc(CN)cc1)NC(=O)[C@H](Cc1ccccc1)N=[N+]=[N-])C(=O)N[C@H](/C=C/S(C)(=O)=O)Cc1ccncc1` [Compound 54, N3-Phe-Phe (4-CH2NH2)-Leu-Ala (4 pyridine)-VS], the IC50 in experiment [1] is above 30 µM. Besides, the “IC50 (Chym-L)/IC50 (Tr-L)” value in experiment [4] is reported as 9.1.
For `CC(C)C[C@@H](/C=C/S(C)(=O)=O)NC(=O)[C@H](CC(C)C)NC(=O)[C@H](Cc1ccc(CN)cc1)NC(=O)[C@H](Cc1ccccc1)N=[N+]=[N-]` [Compound 55, N3-Phe-Phe(4-CH2NH2.TFA)-Leu-Leu-VS], the IC50 in experiment [3] was determined as 0.01 µM. In experiment [4], the “IC50 (Chym-L)/IC50 (Tr-L)” value is 0.057.
Take `CC(C)C[C@@H](/C=C/S(C)(=O)=O)NC(=O)[C@H](CC(C)C)NC(=O)[C@H](Cc1ccncc1)NC(=O)[C@H](Cc1ccccc1)N=[N+]=[N-]` [Compound 57, N3-Phe-Ala(4-pyridine)-Leu-Leu-VS]: at β5 proteasome subunit, the “inhibition of chymotrypsin-like sites in extracts versus purified proteasomes” value is “less potently and selectively in extracts than in purified proteasomes”. Also, the IC50 in experiment [1] was above 30 µM; in experiment [2] it was 24 µM. Besides, the “IC50 (Chym-L)/IC50 (Tr-L)” value in experiment [4] is 0.00021.
For the molecule `CC(C)C[C@H](NC(=O)[C@H](Cc1ccccc1)NC(=O)[C@H](Cc1ccccc1)N=[N+]=[N-])C(=O)N[C@H](/C=C/S(C)(=O)=O)Cc1ccccc1` [Compound 58, N3-Phe-Phe-Leu-Phe-VS], the IC50 in experiment [1] and in experiment [2] was above 30 µM each time.
As to `CCOC(=O)[C@H]1O[C@@H]1C(=O)N[C@@H](CC(C)C)C(=O)NCCC(C)C` [Compound E-64d], in the experiment on RPMI-8226 cells, the sensitization to carfilzomib result was “did not sensitize cells to carfilzomib”.
Take “BODIPY-triazole-Phe-Phe(4-CH2NH2.TFA)-Leu-Phe(4-CH2NH2.TFA)-VS [Compound 59]”: the “specificity after attachment of BODIPY-FL dye” value in experiment [4] is “reduced the specificity”.

Values taken from patent US8609610B2, “Inhibitors of the trypsin-like site of the proteasome and methods of use thereof” (Trustees of Dartmouth College, priority 2011, dated 2013).
